From US9365571B2, “Piperidino-pyrimidine derivatives for the treatment of viral infections” (Janssen Sciences Ireland UC, priority 2012, dated 2016)

Tests used:
Format in all cases: cell-based
[1] = tested on: human TLR7; test: TLR7 cellular NFκB-luc reporter assay in transiently transfected HEK293 cells; conditions: lowest effective concentration, 6 hours incubation
Method: (§1) The ability of compounds to activate human TLR7 and/or TLR8 was assessed in a cellular reporter assay using HEK293 cells transiently transfected with a TLR7 or TLR8 expression vector and NFκB-luc reporter construct. In one instance the TLR expression construct expresses the respective wild type sequence or a mutant sequence comprising a deletion in the second leucine-rich repeat of the TLR.
(§2) Briefly, HEK293 cells were grown in culture medium (DMEM supplemented with 10% FCS and 2 mM Glutamine). For transfection of cells in 10 cm dishes, cells were detached with Trypsin-EDTA, transfected with a mix of CMV-TLR7 or TLR8 plasmid (750 ng), NFκB-luc plasmid (375 ng) and a transfection reagent and incubated overnight at 37° C. in a humidified 5% CO2 atmosphere. Transfected cells were then detached with Trypsin-EDTA, washed in PBS and resuspended in medium to a density of 1.67×10^5 cells/mL. Thirty microliters of cells were then dispensed into each well in 384-well plates, where 10 μL of compound in 4% DMSO was already present. Following 6 hours incubation at 37° C., 5% CO2, the luciferase activity was determined by adding 15 μl of Steady Lite Plus substrate (Perkin Elmer) to each well and readout performed on a ViewLux ultraHTS microplate imager (Perkin Elmer). Dose response curves were generated from measurements performed in quadruplicates. Lowest effective concentrations (LEC) values, defined as the concentration that induces an effect which is at least two fold above the standard deviation of the assay, were determined for each compound.

[2] = tested on: human TLR8; test: TLR8 cellular NFκB-luc reporter assay in transiently transfected HEK293 cells; conditions: lowest effective concentration, 6 hours incubation
Method: as §1, §2

[3] = tested on: PBMC-IFNa; test: PBMC-IFNa; conditions: Table IIC; lowest effective concentration; read-out: PBMC-IFNa (LEC)

| Structure (SMILES) | Human TLR7 (LEC, μM) ([1]; Table II A) | Human TLR8 (LEC, μM) ([2]; Table II A) | Human TLR7 (LEC, μM) ([1]; Table IIC) | Human TLR8 (LEC, μM) ([2]; Table IIC) | minimal effective concentration [3] | other results |
| --- | --- | --- | --- | --- | --- | --- |
| CCCCNc1nc(N)nc2c1CN(C(=O)C1CCC1)CC2 [Compound 1] |  |  |  |  |  | Human TLR7 (LEC, μM) ([1]; Table II B): 0.83 µM; Human TLR8 (LEC, μM) ([2]; Table II B): 0.32 µM |
| CCCCNc1nc(N)nc2c1CCN(C(=O)c1ccccc1)C2 [Compound 2] | 3.96 µM | 0.75 µM |  |  |  |  |
| CCCCNc1nc(N)nc2c1CCN(C(=O)c1cccn1C)C2 [Compound 3] | 0.79 µM | 0.60 µM |  |  |  |  |
| CCCCNc1nc(N)nc2c1CCN(C(=O)C1CC1)C2 [Compound 4] | 6.82 µM | 0.47 µM |  |  |  |  |
| CCCCNc1nc(N)nc2c1CN(C(C)=O)CC2 [Compound 5] |  |  |  |  |  | Human TLR7 (LEC, μM) ([1]; Table II B): 4.90 µM; Human TLR8 (LEC, μM) ([2]; Table II B): 0.50 µM |
| CCCCNc1nc(N)nc2c1CN(C(=O)Cc1cccs1)CC2 [Compound 6] |  |  |  |  |  | Human TLR7 (LEC, μM) ([1]; Table II B): 3.45 µM; Human TLR8 (LEC, μM) ([2]; Table II B): 0.88 µM |
| CCCCNc1nc(N)nc2c1CN(C(=O)C(C)C)CC2 [Compound 7] |  |  |  |  |  | Human TLR7 (LEC, μM) ([1]; Table II B): 8.13 µM; Human TLR8 (LEC, μM) ([2]; Table II B): 1.62 µM |
| CCCCNc1nc(N)nc2c1CN(C(=O)CC)CC2 [Compound 8] |  |  |  |  |  | Human TLR7 (LEC, μM) ([1]; Table II B): 2.34 µM; Human TLR8 (LEC, μM) ([2]; Table II B): 0.40 µM |
| CCCCNc1nc(N)nc2c1CCN(C(=O)Cc1cccs1)C2 [Compound 9] | 1.60 µM | 0.46 µM |  |  |  |  |
| CCCCNc1nc(N)nc2c1CCN(C(=O)c1cc(C)n(C)n1)C2 [Compound 10] | 2.04 µM | 0.71 µM |  |  |  |  |
| CCCCNc1nc(N)nc2c1CCN(C(=O)C1CCC1)C2 [Compound 11] | 2.10 µM | 0.51 µM |  |  |  |  |
| CCCCNc1nc(N)nc2c1CCN(C(=O)c1cccs1)C2 [Compound 12] | 2.40 µM | 0.36 µM |  |  |  |  |
| CCCCNc1nc(N)nc2c1CCN(C(=O)C(C)C)C2 [Compound 13] | 3.21 µM | 0.85 µM |  |  |  |  |
| CCCCNc1nc(N)nc2c1CCN(C(=O)c1cscn1)C2 [Compound 14] | 4.43 µM | 0.90 µM |  |  |  |  |
| CCCCNc1nc(N)nc2c1CCN(C(=O)c1csc(N)n1)C2 [Compound 15] | 4.66 µM | 1.31 µM |  |  |  |  |
| CCCCNc1nc(N)nc2c1CCN(C(=O)COC)C2 [Compound 16] | 5.37 µM | 1.49 µM |  |  |  |  |
| CCCCNc1nc(N)nc2c1CCN(C(C)=O)C2 [Compound 17] | 5.82 µM | 0.43 µM |  |  |  |  |
| CCCCNc1nc(N)nc2c1CCN(C(=O)c1nccn1C)C2 [Compound 18] | 6.16 µM | 0.96 µM |  |  |  |  |
| CCCCNc1nc(N)nc2c1CCN(C(=O)c1ccccn1)C2 [Compound 19] | 6.59 µM | 0.83 µM |  |  |  |  |
| CCCCNc1nc(N)nc2c1CCN(C(=O)c1sccc1Cl)C2 [Compound 20] | 7.15 µM | 0.68 µM |  |  |  |  |
| CCCCNc1nc(N)nc2c1CCN(C(=O)c1ccsc1)C2 [Compound 21] | 8.13 µM | 1.85 µM |  |  |  |  |
| CCCCNc1nc(N)nc2c1CCN(C(=O)c1cnccn1)C2 [Compound 22] | 9.35 µM | 1.37 µM |  |  |  |  |
| CCCCNc1nc(N)nc2c1CCN(C(=O)CC#N)C2 [Compound 23] | 11.62 µM | 2.67 µM |  |  |  |  |

| Structure (SMILES) | Human TLR7 (LEC, μM) ([1]; Table II A) | Human TLR8 (LEC, μM) ([2]; Table II A) | Human TLR7 (LEC, μM) ([1]; Table IIC) | Human TLR8 (LEC, μM) ([2]; Table IIC) | minimal effective concentration [3] | other results |
| --- | --- | --- | --- | --- | --- | --- |
| CCCCNc1nc(N)nc2c1CCN(C(=O)CC(F)(F)F)C2 [Compound 24] | 12.93 µM | 2.29 µM |  |  |  |  |
| CCCCNc1nc(N)nc2c1CCN(C(=O)[C@@H](N)C(C)C)C2 [Compound 25] |  |  | 20.0 µM | 1.8 µM | 1.1 µM |  |
| CCCCNc1nc(N)nc2c1CCN(C(=O)[C@H](C)N)C2 [Compound 26] |  |  | 16.8 µM | 2.1 µM | 0.6 µM |  |
| CCCCNc1nc(N)nc2c1CCN(C(=O)c1csnn1)C2 [Compound 27] |  |  | >25 µM | 1.9 µM | 1.2 µM |  |
| CCCCNc1nc(N)nc2c1CCN(C(=O)c1ccncc1)C2 [Compound 28] |  |  | 8.6 µM | 2.2 µM | 1.9 µM |  |
| CCCCNc1nc(N)nc2c1CCN(C(=O)C1CCOCC1)C2 [Compound 29] |  |  | >25 µM | 7.5 µM | 8.7 µM |  |
| CCCCNc1nc(N)nc2c1CCN(C(=O)CC)C2 [Compound 30] |  |  | 5.0 µM | 0.5 µM | 0.5 µM |  |
| CCCCNc1nc(N)nc2c1CN(C(=O)C1CCOCC1)CC2 [Compound 31] |  |  | 7.7 µM | 0.6 µM | 1.3 µM |  |
| CCCCNc1nc(N)nc2c1CN(C(=O)CC#N)CC2 [Compound 32] |  |  | 7.1 µM | 0.6 µM | 0.9 µM |  |
| CCCCNc1nc(N)nc2c1CN(C(=O)c1ccsc1)CC2 [Compound 33] |  |  | 0.3 µM | 0.2 µM | 0.2 µM |  |
| CCCCNc1nc(N)nc2c1CN(C(=O)c1cc(C)on1)CC2 [Compound 34] |  |  | 0.8 µM | 0.4 µM | 0.2 µM |  |
| CCCCNc1nc(N)nc2c1CN(C(=O)c1cocn1)CC2 [Compound 35] |  |  | 0.7 µM | 0.2 µM | 0.2 µM |  |
| CCCCNc1nc(N)nc2c1CCN(C(=O)c1cocn1)C2 [Compound 36] |  |  | 4.7 µM | 0.9 µM | 0.6 µM |  |
| CCCCNc1nc(N)nc2c1CCN(C(=O)c1nccc3ccccc13)C2 [Compound 37] |  |  | 7.2 µM | 1.7 µM | 1.8 µM |  |
| CCCCNc1nc(N)nc2c1CCN(C(=O)c1cc(C)on1)C2 [Compound 38] |  |  | 5.2 µM | 0.8 µM | 0.6 µM |  |
| CCC[C@@H](CCO)Nc1nc(N)nc2c1CN(C(=O)c1ccccc1)CC2 [Compound 39] |  |  | 2.5 µM | 4.2 µM | 0.5 µM |  |
| CCC[C@@H](CCO)Nc1nc(N)nc2c1CN(C(=O)c1cscn1)CC2 [Compound 40] |  |  | 2.2 µM | 4.5 µM | 0.2 µM |  |
| CCC[C@@H](CCO)Nc1nc(N)nc2c1CN(C(=O)c1ccco1)CC2 [Compound 41] |  |  | 0.4 µM | 0.4 µM | 0.1 µM |  |
| CCC[C@@H](CCO)Nc1nc(N)nc2c1CN(C(=O)c1csc(C)n1)CC2 [Compound 42] |  |  | 2.2 µM | 2.1 µM | 0.2 µM |  |
| CCCC[C@@H](CCO)Nc1nc(N)nc2c1CN(C(=O)c1ccco1)CC2 [Compound 43] |  |  | 0.1 µM | 0.7 µM | 0.04 µM |  |
| CCCC[C@@H](CCO)Nc1nc(N)nc2c1CN(C(=O)c1csc(C)n1)CC2 [Compound 44] |  |  | 1.0 µM | 6.6 µM | 0.2 µM |  |
| CCC[C@@H](CCO)Nc1nc(N)nc2c1CCN(C(=O)c1ccncc1)C2 [Compound 52] |  |  | 12.1 µM | 15 µM |  |  |
